molecular target: DNA-PK (Homo sapiens, UniProt P78527); assay: DNA-PK inhibition assay (radiometric, 33P-ATP); assay type: biochemical; settings: 100 μM ATP, competitive tight-binding fit
Procedure, shortened: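 Approx. 6 nM DNA-PK with 10 µg/mL sheared dsDNA, 0.8 mg/mL peptide substrate and 100 µM 33P-ATP in HEPES pH 7.5, 10 mM MgCl2; 45 min, phosphoric acid quench. Phosphopeptide captured on filter plates and counted by scintillation; Ki from a competitive tight-binding model fit.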

Ki, < 0.03 µM:
COC(=O)c1ccc(C(C)CNc2cc(-c3ccc(N4CCN(C(C)=O)CC4)nc3)ncn2)c(OC)c1 (stereo not drawn) [Compound 116]
CNC(=O)c1c(F)cnc2c([C@H](C)CNc3cc(-c4cncc(C)c4)ncn3)cccc12 [Compound 772]
CNC(=O)c1ccc(C(C)CNc2cc(-c3ccc(C4(CO)CC4)cc3)ncn2)c(OC)c1 (stereo not drawn) [Compound 338]
Cc1ccc(-c2cc(NCC(C)c3cccc4nccnc34)ncn2)cn1 (stereo not drawn) [Compound 332]
CNC(=O)c1ccnc2c([C@H](C)CNc3cc(-c4cnc(NC(C)C)nc4)ncn3)cccc12 [Compound 618]
CNC(=O)c1ccnc2c([C@H](C)CNc3cc(-c4cnc(SC)nc4)ncn3)cccc12 [Compound 800]
Cc1ncc(-c2cc(NC[C@@H](C)c3cccc4cc(F)cnc34)ncn2)cn1 [Compound 667]
CN1CCN(c2ccc(-c3cc(NCCc4ccccc4OC4CC4)ncn3)cn2)CC1=O [Compound 142]
CNC(=O)c1ccnc2c([C@H](C)CNc3cc(-c4ccc(C5CC5)nc4)ncn3)ccc(F)c12 [Compound 852]
CNC(=O)c1ccc([C@H](C)CNc2cc(-c3ccc(N4CCCC4=O)cc3)ncn2)c(OC)c1 [Compound 313]
CCOc1cc(F)ccc1[C@H](C)CNc1cc(-c2ccc(N3CCN(C)CC3)nc2)ncn1 [Compound 120]
CNC(=O)c1ccc(C(C)CNc2cc(-c3cnc4c(cnn4CCOC)c3)ncn2)c(OC)c1 (stereo not drawn) [Compound 154]
C[C@H](CNc1cc(-c2cnc3c(cnn3C)c2)ncn1)c1ccnc2c1OCC2 [Compound 438]
CNC(=O)c1ccnc2c([C@H](C)CNc3cc(-c4cnc(C(C)(C)C)nc4)ncn3)cccc12 [Compound 791]
CNC(=O)c1ccnc2c([C@H](C)CNc3cc(-c4cnc(OC(C)C)c(C)c4)ncn3)cccc12 [Compound 947]
Cc1ccc(-c2cc(NCC(C)c3cnccc3OC3CC3)ncn2)cn1 (stereo not drawn) [Compound 165]
CNC(=O)c1ccc([C@H](C)CNc2cc(-c3ccc(Nc4nc[nH]n4)nc3)ncn2)c(OC)c1 [Compound 354]
CNC(=O)c1ccc([C@H](C)CNc2cc(-c3ccc(C)nc3)ncn2)c(OC2CCC2)c1 [Compound 478]
CNC(=O)c1ccnc2c([C@H](C)CNc3cc(-c4ccc(CO)s4)ncn3)cccc12 [Compound 860]
COc1cc(C(=O)NO)ccc1C(C)CNc1cc(-c2ccc(C)nc2)ncn1 (stereo not drawn) [Compound 156]
CCNc1ccc(-c2cc(NC[C@@H](C)c3cc(C)nc4c3OCC4)ncn2)cn1 [Compound 575]
CNC(=O)c1ccnc2c([C@H](C)CNc3cc(-c4ccc(N5CCC(C)(O)C5)nc4)ncn3)cccc12 (stereo partly drawn) [Compound 732]
CNC(=O)c1ccnc2c([C@H](C)CNc3cc(-c4cc(F)c(OC)c(F)c4)ncn3)cccc12 [Compound 824]
CNC(=O)c1ccnc2c([C@H](C)CNc3cc(-c4ccc(C(=O)NCCO)cc4)ncn3)cccc12 [Compound 753]
CNCCNc1ccc(-c2cc(NC[C@@H](C)c3cccc4c(C(=O)NC)ccnc34)ncn2)cn1 [Compound 584]
COc1ccccc1CCNc1cc(-c2ccc(C)nc2)ncn1 [Compound 11]
CNC(=O)c1ccnc2c([C@H](C)CNc3cc(-c4ccc(N(C)C5CCS(=O)(=O)C5)nc4)ncn3)cccc12 (stereo partly drawn) [Compound 711]
COc1ccsc1C(C)CNc1cc(-c2cnc3c(cnn3CCO)c2)ncn1 (stereo not drawn) [Compound 233]
Cc1ccc(-c2cc(NC[C@@H](C)c3ccnc4c3OCCN4)ncn2)cn1 [Compound 660]
CNC(=O)c1ccc(C(C)CNc2cc(-c3ccc(OCC4CC4)nc3)ncn2)c(OC)c1 (stereo not drawn) [Compound 326]
CNCCNc1ccc(-c2cc(NC[C@@H](C)c3ccnc4c3OCC4)ncn2)cn1 [Compound 483]
CNC(=O)c1ccc(C(C)CNc2cc(-c3cn(C4COC4)c4ncc(F)cc34)ncn2)c(OC)c1 (stereo not drawn) [Compound 449]
CNC(=O)c1ccc([C@H](C)CNc2cc(-c3cnc(C)nc3)ncn2)c(OC)c1 [Compound 308]
Cc1ccc(-c2cc(NC[C@@H](C)c3ccnc4cccnc34)ncn2)cn1 [Compound 495]
CC(CNc1cc(-c2cnc3c(cnn3CCO)c2)ncn1)c1ccnc2c1OCCO2 (stereo not drawn) [Compound 444]
CNC(=O)c1ccnc2c([C@H](C)CNc3cc(-c4ccc(C5(N)CC5)nc4)ncn3)ccc(F)c12 [Compound 940]
CNC(=O)c1c(F)cnc2c([C@H](C)CNc3cc(-c4cnc(OC(C)C)nc4)ncn3)cccc12 [Compound 938]
CNC(=O)c1ccc([C@H](C)CNc2cc(-c3ccc4c(cnn4CC4CC4)c3)ncn2)c(OC)c1 [Compound 294]
CNC(=O)c1c(C#N)cnc2c([C@H](C)CNc3cc(-c4ccc(C)nc4)ncn3)cccc12 [Compound 766]
CNC(=O)c1ccnc2c([C@H](C)CNc3cc(-c4cncc(S(C)(=O)=O)c4)ncn3)cccc12 [Compound 877]
COc1ccsc1C(C)CNc1cc(-c2cnc3c(cnn3CC3CC3)c2)ncn1 (stereo not drawn) [Compound 232]
CNC(=O)c1ccnc2c([C@H](C)CNc3cc(-c4ccc5c(c4)CN(C(=O)COC)CC5)ncn3)cccc12 [Compound 834]
CNC(=O)c1ccnc2c([C@H](C)CNc3cc(-c4ccnc(N)c4)ncn3)cccc12 [Compound 876]
CNC(=O)c1c(F)cnc2c([C@H](C)CNc3cc(-c4cnn(C)c4)ncn3)cccc12 [Compound 783]
CNC(=O)c1ccc(C(C)CNc2cc(-c3ccc(C)nc3)ncn2)c(OC)c1 (stereo not drawn) [Compound 123]
CCN1CCCC1CNc1ccc(-c2cc(NC[C@@H](C)c3cccc4c(C(=O)NC)ccnc34)ncn2)cn1 (single isomer, unassigned) [Compound 704]
CC(CNc1cc(-c2cnc3c(cnn3CCO)c2)ncn1)c1ccnc2cccnc12 (stereo not drawn) [Compound 400]
Cc1ccc(-c2cc(NC[C@@H](C)c3ccnc4c3OCC4(C)C)ncn2)cn1 [Compound 583]
CNC(=O)c1ccnc2c([C@H](C)CNc3cc(-c4cnc5c(cnn5C(C)(C)C)c4)ncn3)cccc12 [Compound 619]
CNC(=O)c1ccnc2c([C@H](C)CNc3cc(-c4ccc(NC(=O)OC)cc4)ncn3)cccc12 [Compound 750]
COc1ccccc1[C@H](C)CNc1cc(-c2ccnc(NCCCO)c2)ncn1 [Compound 206]
CNC(=O)c1ccnc2c([C@H](C)CNc3cc(-c4ccc(F)nc4)ncn3)ccc(F)c12 [Compound 907]
CNC(=O)c1ccnc2c([C@H](C)CNc3cc(-c4cnc(N5CCCC(O)C5)nc4)ncn3)cccc12 (stereo partly drawn) [Compound 728]
CNC(=O)c1ccc([C@H](C)CNc2cc(-c3ccc(Nc4ccncc4)nc3)ncn2)c(OC)c1 [Compound 396]
Cc1ccc(-c2cc(NCC(C)c3cccc4nsnc34)ncn2)cn1 (stereo not drawn) [Compound 398]
CNC(=O)c1ccc([C@H](C)CNc2cc(-c3cnc(NC)nc3)ncn2)c(OC)c1 [Compound 304]
CNC(=O)c1ccnc2c([C@H](C)CNc3cc(-c4ccnc(OC)c4)ncn3)cccc12 [Compound 869]
CNC(=O)c1ccc([C@H](C)CNc2cc(-c3cn(C4COC4)c4ncccc34)ncn2)c(OC)c1 [Compound 481]
CNC(=O)c1ccnc2c([C@H](C)CNc3cc(-c4cnc(N)c(CO)c4)ncn3)cccc12 [Compound 970]
COc1ccccc1[C@H](C)CNc1cc(-c2ccnc(-c3ccnc(F)c3)c2)ncn1 [Compound 105]
Cc1ccc(-c2cc(NCC(C)c3cccc4c3OC(C)(C)C4)ncn2)cn1 (stereo not drawn) [Compound 85]
CC(CNc1cc(-c2cnc3c(cnn3CCO)c2)ncn1)c1cccc2nccnc12 (stereo not drawn) [Compound 401]
CNCCCNc1ccc(-c2cc(NC[C@@H](C)c3ccc(C(=O)NC)cc3OC)ncn2)cn1 [Compound 356]
CNC(=O)c1ccc([C@H](C)CNc2cc(-c3ccc(NC4CCOC4)nc3)ncn2)c(OC)c1 (single isomer, unassigned) [Compound 391]
CNC(=O)c1ccnc2c([C@H](C)CNc3cc(-c4ccc(N5Cc6ccncc6C5)nc4)ncn3)cccc12 [Compound 718]
CNC(=O)c1ccnc2c([C@H](C)CNc3cc(-c4ccc(C#N)nc4)ncn3)cccc12 [Compound 613]
CNC(=O)c1ccc([C@H](C)CNc2cc(-c3ccc(NCC(F)F)nc3)ncn2)c(OC)c1 [Compound 390]
CNC(=O)c1ccnc2c([C@H](C)CNc3cc(-c4ccc(-c5nnnn5C)nc4)ncn3)cccc12 [Compound 958]
COc1ccccc1CCNc1cc(-c2cnc3c(cnn3C)c2)ncn1 [Compound 42]

— patent US10391095B2, “DNA-PK inhibitors” (Vertex Pharmaceuticals Incorporated, priority 2012, dated 2019)
